Results: US10058566B2, “Sulfated polygulonic acid polysaccharide or pharmaceutical salt thereof, preparation method therefor and use thereof” (SHANGHAI INSTITUTE OF MATERIA MEDICA CHINESE ACADEMY OF …, priority 2013, dated 2018)

Key:
[1] = tested on: lung metastasis of human breast cancer MDA-MB-435 orthotopic xenografts; experiment: Lung metastasis of human breast cancer MDA-MB-435 orthotopic xenografts; assay type: in vivo, nude mice (BALB/cA); details: 5 mg/kg, intravenous injection once per week for 7 continuous weeks
Description: (§1) Human breast cancer MDA-MB-435 cells (from American Type Culture Collection, ATCC, Rockville, Md., USA) in an exponential growth phase at a concentration of 2.5×10^7 cells/ml were inoculated into the second left mammary fat pad of 4-5-week old female nude mice (BALB/cA, provided by Shanghai Institute of Materia Medica, Chinese Academy of Sciences). When the tumors were grown to the size of 100-200 mm^3, the animals were evenly divided according tumor volumes into a negative control group, a doxorubicin injection (Adriamycin, ADM) treatment group (positive control group), and 5 mg/kg and 20 mg/kg PGAS treatment groups (PGAS experimental groups), 20 mice/group. […] In the experiments, a vernier caliper was used to measure the diameter of tumors twice a week, and the tumor volume (V) was calculated following the formula below: V=½×a×b^2
The animals were sacrificed 1 week after discontinuation of dosing. […] The number of lung metastasis nodes per lung was observed and recorded under a dissecting microscope. […] A part of lungs and orthotopic tumor tissues were fixed in 10% formalin, and angiogenesis in tumor tissues was determined by H&E staining and immunohistochemistry.
(§2) At this point of time, the animals are sacrificed and subjected to anti-tumor effect evaluation. […] Further, the effect of PGAS on angiogenesis in vivo was evaluated by immunohistochemical staining.

[2] = tested on: human breast cancer MDA-MB-435 orthotopic xenografts; experiment: Growth of human breast cancer MDA-MB-435 orthotopic xenografts in nude mice; assay type: in vivo, nude mice (BALB/cA); details: 5 mg/kg, intravenous injection once per week for 7 continuous weeks
Description: as §1
in which, a and b represent the length and the width of tumors, respectively. The relative tumor volume (RTV) was calculated based on the measured results, using the calculation formula: RTVt=Vt/Vo; in which, V0 is the measured tumor volume when animals were divided to different dosing (i.e. d0), and Vt is the tumor volume on the day of measurement. […]
as §2

## COc1cccc2c1C(=O)c1c(O)c3c(c(O)c1C2=O)C[C@@](O)(C(=O)CO)C[C@@H]3O[C@H]1C[C@H](N)[C@H](O)[C@H](C)O1 [ADM, Doxorubicin]
[1]
  inhibition rate on lung metastasis: 89.8%
[2]
  relative tumor proliferation rate T/C: 21.8%
